Data taken from patent US9884813B1, “Pharmaceutically acceptable salts of B-guanidinopropionic acid with improved properties and uses thereof” (Rgenix, Inc., priority 2017, dated 2018).

Assays:
Assay type in all cases: physicochemical
[1] = Carr's index and Hausner ratio (predicted flowability)
Source text: The flow properties of β-GPA are sub-optimal. The bulk density is 0.389 g/cc and the tapped density is 0.627 g/cc. These measurements can be used to calculate the Carr's index and Hausner ratio for a substance. The Carr's index and Hausner ratio are indicators of flowability of a powder. As known in the art, e.g., as described in Carr R. L. Chem. Eng. 1965, 72, 163-168, the relationship to flowability of a powder to the Carr's index and Hausner ratio is based on the scale shown in Table 6 below.
Carr's index or Carr's compressibility index (C) is an indication of the compressibility of a powder. It can be calculated using the equation below: Carr's index (C)=100(Vi−Vf)/Vi (3) A Carr's index greater than 25 is considered to be an indication of poor flowability while a value below 15 is an indication of good flowability.
The Hausner ratio is a number that is correlated to the flowability of a powder or granular material. It is calculated by using the equation below: Hausner ratio=Vi/Vf (4)

[2] = Gravimetric solubility of 2:1 β-GPA fumarate in solvents
Method: Solubility of β-GPA fumarate was measured gravimetrically in fifteen different solvents and solvent mixtures at 15 and 45° C. About 100 mg of the compound was dispensed in ten volumes (1 mL) of the solvent/solvent mixture and slurried for 48 hours. Table 24 represents the solubility of β-GPA fumarate in different solvents. After 48 hours the vials were centrifuged. The supernatant was collected and left for slow evaporation under vacuum at 45° C. and solubility was determined. The solids obtained after centrifugation and evaporation were analyzed by XRPD.

[3] = Flowability measurement using Hanson Flodex unit
Source text: Method: A cylindrical vessel is secured to the stand and above that a funnel is also secured such that the bottom of the funnel is close to the vessel. A powder load of ≈50-60 g is then poured through the funnel into the middle of the cylinder. The lever device is pulled to open the hole in the disk quickly and without vibration. If a powder slowly flows through the small-diameter holes, leaving a cavity shaped like an upside-down, truncated cone, the test is considered positive. If a powder flocculates in bulk and falls abruptly, forming a cylindrical cavity, the test is considered negative. […] If the experiment is negative, the powder is tested again with a disk having a larger hole.

[4] = Solid form stability of 2:1 β-GPA fumarate at various temperature/humidity conditions (XRPD); conditions: for XRPD: a week
Method: The solid form stability of β-GPA fumarate was studied at various temperature/humidity conditions as listed in Table 23 for a week using saturated salt solution chambers. The samples were analyzed by XRPD after a week.

[5] = Dynamic vapor sorption (DVS) with XRPD of the post-DVS sample; conditions: for solid form by XRPD after the DVS experiment: post DVS sample
Method: Samples were analyzed using an Aquadyne DVS-2 gravimetric water sorption analyzer. The relative humidity was adjusted between 2-95% and the weight of the sample was continuously monitored and recorded.
[…]: β-GPA maleate (1:1) Form II, β-GPA fumarate (1:1), β-GPA maleate (2:1), β-GPA succinate (2:1) and β-GPA oxalate (1:1) were analyzed by DVS experiment followed by XRPD analysis of the sample at the end of the experiment.
Sample 2162-64-1 was analyzed by DVS in triplicate and the post DVS samples were characterized by XRPD to identify the form at the end of the experiment.

[6] = Temperature cycling experiments of 2:1 β-GPA fumarate
Method: The following (Table 26) experiments were performed to isolate possible polymorphic forms of 2:1 β-GPA fumarate.

[7] = Carr's index and Hausner ratio (predicted flowability); conditions: Table 18, scale of Table 17
[8] = Bulk and tapped density
Method: The bulk density of β-GPA oxalate (Pattern 18 B), succinate (Pattern 15A), and fumarate (Pattern 7A) were determined by pouring in a known amount of salt (g) into a measuring cylinder. The volume (Vi) occupied by the salt was recorded and the bulk density (ρB) was determined using equation 1. ρB=g/Vi (1)
The tapped densities of the salts were determined using a Tap density analyzer. A known amount of salt was poured (g) into a measuring cylinder and the initial volume was recorded and tapped using a Tap density analyzer. The final volume (Vf) after tapping was recorded and the tapped density (ρT) was calculated by using equation 2. ρT=g/Vf (2)

[9] = calculated from bulk and tapped volumes

Question: Which “Carr's index” value [1, 9] does the source give for `N=C(N)NCCC(=O)O.N=C(N)NCCC(=O)O.O=C(O)/C=C/C(=O)O` [β-GPA fumarate (2:1)] here?
Answer: Its value is 5.9.

Question: What about the Hausner ratio [1, 9] of the same molecule?
Answer: The Hausner ratio was 1.063.

Question: And the Flow character ([1]; predicted, scale of Table 6 (Carr's index))?
Answer: The Flow character was “Excellent (1-10)”.

Question: What about the Solubility ([2]; Acetone, 15° C.) of the same molecule?
Answer: The Solubility was <1000 µg/mL.

Question: And the Solubility ([2]; Acetone, 45° C.)?
Answer: The Solubility was <1000 µg/mL.

Question: And the Solubility ([2]; Acetone:H2O (9:1), 15° C.)?
Answer: The Solubility was 2500 µg/mL.

Question: What about the Solubility ([2]; Acetone:H2O (9:1), 45° C.) of the same molecule?
Answer: Its Solubility is 4100 µg/mL.

Question: And the Solubility ([2]; DCM, 15° C.)?
Answer: The Solubility was <1000 µg/mL.

Question: What about the Solubility ([2]; DCM, 45° C.) of the same molecule?
Answer: Its Solubility is 500 µg/mL.

Question: What about the Solubility ([2]; EtOAc, 15° C.) of the same molecule?
Answer: The Solubility was <1000 µg/mL.

Question: What about the Solubility ([2]; EtOAc, 45° C.) of the same molecule?
Answer: Its Solubility is <1000 µg/mL.

Question: And the Solubility ([2]; EtOH, 15° C.)?
Answer: The Solubility was <1000 µg/mL.

Question: What about the Solubility ([2]; EtOH, 45° C.) of the same molecule?
Answer: Its Solubility is <1000 µg/mL.

Question: What about the Solubility ([2]; H2O:MeOH:IPA (3:5.5:5), 15° C.) of the same molecule?
Answer: The Solubility was <1000 µg/mL.

Question: What about the Solubility ([2]; H2O:MeOH:IPA (3:5.5:5), 45° C.) of the same molecule?
Answer: Its Solubility is <1000 µg/mL.

Question: What about the Solubility ([2]; Heptane, 15° C.) of the same molecule?
Answer: Its Solubility is <1000 µg/mL.

Question: What about the Solubility ([2]; Heptane, 45° C.) of the same molecule?
Answer: Its Solubility is <1000 µg/mL.

Question: What about the Solubility ([2]; IPA, 15° C.) of the same molecule?
Answer: Its Solubility is <1000 µg/mL.

Question: And the Solubility ([2]; IPA, 45° C.)?
Answer: The Solubility was <1000 µg/mL.

Question: What about the Solubility ([2]; IPA:H2O (9:1), 15° C.) of the same molecule?
Answer: Its Solubility is 1640 µg/mL.

Question: What about the Solubility ([2]; IPA:H2O (9:1), 45° C.) of the same molecule?
Answer: Its Solubility is 2100 µg/mL.

Question: What about the Solubility ([2]; MeCN, 15° C.) of the same molecule?
Answer: Its Solubility is <1000 µg/mL.

Question: And the Solubility ([2]; MeCN, 45° C.)?
Answer: Its Solubility is <1000 µg/mL.

Question: And the Solubility ([2]; MeOH, 15° C.)?
Answer: Its Solubility is ~1000 µg/mL.

Question: What about the Solubility ([2]; MeOH, 45° C.) of the same molecule?
Answer: Its Solubility is 2730 µg/mL.

Question: And the Solubility ([2]; MeOH:H2O (9:1), 15° C.)?
Answer: Its Solubility is 9200 µg/mL.

Question: What about the Solubility ([2]; MeOH:H2O (9:1), 45° C.) of the same molecule?
Answer: Its Solubility is 11200 µg/mL.

Question: And the Solubility ([2]; TBME, 15° C.)?
Answer: Its Solubility is 3000 µg/mL.

Question: What about the Solubility ([2]; TBME, 45° C.) of the same molecule?
Answer: Its Solubility is 28900 µg/mL.

Question: And the Solubility ([2]; THF:H2O (9:1), 15° C.)?
Answer: Its Solubility is 2080 µg/mL.

Question: And the Solubility ([2]; THF:H2O (9:1), 45° C.)?
Answer: The Solubility was 4120 µg/mL.

Question: What about the Solubility ([2]; Water, 15° C.) of the same molecule?
Answer: Its Solubility is 30000 µg/mL.

Question: And the Solubility ([2]; Water, 45° C.)?
Answer: Its Solubility is >100000 µg/mL.

Question: What about the “XRPD analysis of the precipitates after 48 hours slurries” value ([2]; fifteen solvents and solvent mixtures at 15 and 45° C.) of the same molecule?
Answer: Its value is “no form transformations”.

Question: And the “Did solid pass?” value ([3]; Disc pore size 4 mm)?
Answer: The value was “No”.

Question: And the “Did solid pass?” value ([3]; Disc pore size 5 mm)?
Answer: Its value is “Yes”.

Question: What about the “Did solid pass?” value ([3]; Disc pore size 6 mm) of the same molecule?
Answer: Its value is “Yes”.

Question: And the “Did solid pass?” value ([3]; Disc pore size 12 mm)?
Answer: The value was “Yes”.

Question: And the XRPD ([4]; 20° C., 43% relative humidity)?
Answer: The XRPD was “Pattern 7A”.

Question: And the XRPD ([4]; 20° C., 59% relative humidity)?
Answer: The XRPD was “Pattern 7A”.

Question: And the XRPD ([4]; 20° C., 73% relative humidity)?
Answer: The XRPD was “Pattern 7A”.

Question: What about the XRPD ([4]; 20° C., >95% relative humidity) of the same molecule?
Answer: The XRPD was “Pattern 7A”.

Question: What about the XRPD ([4]; 40° C., 82% relative humidity) of the same molecule?
Answer: The XRPD was “Pattern 7A”.

Question: What about the XRPD ([4]; 60° C., 50% relative humidity) of the same molecule?
Answer: Its XRPD is “Pattern 7A”.

Question: And the XRPD ([4]; 60° C., 80% relative humidity)?
Answer: The XRPD was “Pattern 7A”.

Question: And the solid form stability ([4]; RH >95% at 20° C.)?
Answer: Its solid form stability is “stable”.

Question: And the XRPD pattern ([4]; RH >95% at room temperature, 48 hours)?
Answer: The XRPD pattern was “retain its original XRPD pattern (Pattern 7A)”.

Question: What about the “moisture uptake during the DVS experiment” value [5] of the same molecule?
Answer: The value was “less than 0.1%”.

Question: And the “solid form by XRPD after the DVS experiment” value ([5]; listed as 2:1 fumarate salt)?
Answer: Its value is “did not exhibit any dissociation of the salt”.

Question: What about the “solid form by XRPD after the DVS experiment” value ([5]; listed as 2162-64-1) of the same molecule?
Answer: Its value is “identical to β-GPA fumarate (Pattern 7A)”.

Question: What about the “Result (XRPD)” value ([6]; 50° C. 2 hours, RT, 50° C. 48 hours) of the same molecule?
Answer: Its value is “Pattern 7A”.

Question: And the “Result (XRPD)” value ([6]; dry ice-acetone 30 minutes, RT)?
Answer: Its value is “Pattern 7A”.

Question: What about the “Result (XRPD)” value ([6]; heated to 150° C. and brought to room temperature, cycle repeated three times) of the same molecule?
Answer: Its value is “Pattern 7A”.

Question: What about the “Result (XRPD)” value ([6]; vacuum oven 130° C. 2 hours, RT, 130° C. 48 hours) of the same molecule?
Answer: Its value is “Pattern 7A”.

Question: What about the Flow character [7] of the same molecule?
Answer: The Flow character was “Excellent (1-10)”.

Question: What about the Bulk density [8] of the same molecule?
Answer: Its Bulk density is 0.576 g/cc.

Question: And the Tapped density [8]?
Answer: Its Tapped density is 0.613 g/cc.
